Experimental data published in publication PMC6385020 (Molecules, 2019).
Values joined by “and” are separate entries in the source; they are usually repeats but may differ in a detail not shown here. Equal values may be shown once.

How the values were obtained:
[1] = test system: CEB25-WT (DNA, G4) AAGGGTGGGTGTAAGTGTGGGTGGGT; experiment: G4-FID, thiazole orange displacement; conditions: 100 mM KCl; 10 mM lithium cacodylate pH 7.3, 1% DMSO; thiazole orange displaced; 1 µM compound, 0.25 µM DNA
[2] = test system: duplex ds26 DNA; experiment: TO G4-FID assay; assay type: binding; conditions: ds26, K+100 buffer
Procedure: (§1) For the G4-FID assay, the oligonucleotides were dissolved in K^+100 buffer (10 mM lithium cacodylate buffer pH 7.3, 100 mM KCl, 1% DMSO). Oligonucleotide concentrations were determined on the basis of their absorbance at 260 nm. For the fluorimetric titration, the oligonucleotides were dissolved in K^+100 buffer without DMSO. For the FRET-melting assay, the oligonucleotides were dissolved in K^+1 buffer (10 mM lithium cacodylate buffer pH 7.3, 1 mM KCl, 99 mM LiCl) except for F-21-T. F-21-T was dissolved in K^+10 buffer (10 mM lithium cacodylate buffer pH 7.3, 10 mM KCl, 90 mM LiCl).
(§2) Prior to use, all oligonucleotides were pretreated by heating at 95 °C for 5 min, then rapidly cooled to 4 °C to favor the intramolecular folding by kinetic trapping. Duplex-DNA ds26 was prepared by heating the self-complementary strand at 90 °C for 5 min in K^+1 buffer followed by a slow cooling over 6 h.
Each G4-FID assay was performed in a 96-well Non-Binding Surface black with black bottom polystyrene microplates (Corning). Every ligand was tested on a line of the microplate, in duplicate. […] After 5 min of orbital shaking at 500 rpm, fluorescence is measured using the following experimental parameters: positioning delay of 0.5 s, 20 flashes per well, emission/excitation filters for TO at 485/520, TO-PRO-3 at 620/670, and PhenDV at 355/520 gain adjusted at 80% of the fluorescence from the most fluorescent well (i.e., a well from column A for TO and a well from column H).
(§3) The percentage of TO displacement is calculated from the fluorescence intensity (F), using (1) % TO displacement=1−F/F0 where F0 is the fluorescence from the fluorescent probe bound to DNA without added ligand.
The PhenDV displacement is calculated from the fluorescence intensity F; F(ligand+probe), which refers to the fluorescence of the probe in presence of the ligand (without G4); and F0, which is the fluorescence without added ligand. The term F(ligand+probe) is necessary as the ligand can quench the fluorescence of the probe. […]

[3] = test system: 21CTA human telomeric sequence variant G4; assay type: binding; conditions: PhenDV 1.5 eq, K+100 buffer
Procedure: as §1, §2
(§4) Each G4-FID assay was performed in a 96-well Non-Binding Surface black with black bottom polystyrene microplates (Corning). Every ligand was tested on a line of the microplate, in duplicate. The microplate was filled with (a) K^+100 solution (qs for 200 μL), (b) 10 μL of a solution of pre-folded oligonucleotides (5 μM) and fluorescent probe (TO/TO-PRO-3 (10 μM—2 eq) or PhenDV (7,5 µM—1.5 eq)), and (c) an extemporaneously prepared 5 μM ligand solution in K^+100 buffer (0 to 100 μL) along the line of the microplate, i.e., from column A to column H: 0, 0.125, 0.25, 0.375, 0.5, 0.625, 0.75, 1.0, 1.25, 1.5, 2.0, and 2.5 μM. After 5 min of orbital shaking at 500 rpm, fluorescence is measured using the following experimental parameters: positioning delay of 0.5 s, 20 flashes per well, emission/excitation filters for TO at 485/520, TO-PRO-3 at 620/670, and PhenDV at 355/520 gain adjusted at 80% of the fluorescence from the most fluorescent well (i.e., a well from column A for TO and a well from column H).
In the case of PhenDV, the fluorescence of the unbound probe is not negligible. The percentage of displacement becomes (2) % PhenDV Displacement=F−F0/Fligand+probe−F0
(§5) The PhenDV displacement is calculated from the fluorescence intensity F; F(ligand+probe), which refers to the fluorescence of the probe in presence of the ligand (without G4); and F0, which is the fluorescence without added ligand. The term F(ligand+probe) is necessary as the ligand can quench the fluorescence of the probe. The percentage of displacement is then plotted as a function of the concentration of the added ligand. The DNA affinity was evaluated by the concentration of ligand required to decrease the fluorescence of the probe by 50%, was noted DC50, and was determined after non-linear fitting of the displacement curve.

[4] = test system: c-myc G4 DNA; experiment: Platination of c-myc followed by denaturing gel electrophoresis; assay type: biochemical; conditions: for platination products on gel electrophoresis: c-myc 100 µM, 18 h at 32 °C, K+100 buffer; for platination of c-myc during melting temperature experiments: 0.2 µM c-myc, 1 µM complex, 25 to 95 °C gradient, K+1 buffer; for selectivity of platination, c-myc G4 vs duplex ds26 (competition kinetics): c-myc 0.2 µM, ds26 10 µM
Procedure: The five platinum complexes were incubated for 18 h at 32 °C with pre-folded 5’-end ^32P radiolabeled c-myc DNA (10 or 100 µM) and loaded on denaturing polyacrylamide gel electrophoresis (Figure 4).
Two main accelerated bands (A1 and A2) were detected for Pt-ttpy and three were detected for Pt-tpy (B1, B2, and B3) in the presence of 10 µM of DNA. However, for Pt-BisQ, two accelerated bands (C1 and C2) and one retarded band (C3) were only detected at higher DNA concentration (100 µM). It is noteworthy that c-myc platination products migrate faster that the non-platinated G4, resulting in a stark contrast if compared to 22AG in which platination products migrate slower (Figure 2): this is due to the presence of the still folded G4 structures that resist to denaturation, as already found. […] The platination sites of Pt-ttpy, Pt-tpy, and Pt-BisQ were determined by 3’-exonuclease digestion, which stops at the platinated base, followed by a de-platination treatment of the digested fragments with NaCN (Figures S6 and S7). The exact length of the digested de-platinated fragment was deduced from its migration compared with the one of a digestion ladder of the c-myc sequence on a denaturating gel electrophoresis.
The oligonucleotides were 5’-end-labelled using a polynucleotide kinase and (γ^32P)-ATP (Perkin Helmer). The reaction products were purified by electrophoresis on 20% denaturing gel. Sample platinations were prepared by folding a mixture of 5’-end-radiolabeled DNA and 10 µM or 100 µM of non-radiolabeled material in 100 mM KClO4 or 100 mM KCl solution except for the platination reaction in the denaturing temperature conditions. The folding was achieved by heating the samples at 90 °C for 5 min, followed by slow cooling to room temperature over the course of 2 h to induce the formation of the quadruplex structure. It was then incubated with platinum complexes, and platinated products were separated by electrophoresis on 15% denaturing gel. They were then eluted from gel, precipitated, treated by 3’-exonuclease at 37 °C for 30 min, and loaded on a 20% denaturing gel. The digested fragments were eluted from this gel precipitated, treated over night by NaCN 0.2M, precipitated, and loaded once again on a 20% denaturing gel. Gels were scanned using a STORM860 (Molecular Dynamics).

[5] = test system: CEB25-WT minisatellite sequence G4; experiment: TO G4-FID assay; assay type: binding; conditions: TO 2 eq, K+100 buffer
Procedure: as §1, §2, §4, §3, §5

[6] = test system: c-myc G4; experiment: TO G4-FID assay; assay type: binding; conditions: TO 2 eq, K+100 buffer
Procedure: as §1, §2, §4, §3, §5

[7] = test system: 22AG human telomeric sequence G4; experiment: TO G4-FID assay; assay type: binding; conditions: TO 2 eq, K+100 buffer
Procedure: as §1, §2, §4, §3, §5

[8] = test system: G4 structures (22AG, c-myc, 21CTA, CEB25-WT); experiment: TO-PRO-3-G4-FID assay, G4 structures; assay type: binding
Procedure: as §1, §2, §4, §3, §5

Compound	% TO displacement [1] [%]	% of TO displacement at 1 µM of ligand [2]	% of PhenDV displacement at 1 µM of ligand [3] [%]	platination products on gel electrophoresis [4]	% of TO displacement at 1 µM of ligand [5] [%]	% of TO displacement at 1 µM of ligand [6] [%]	% of TO displacement at 1 µM of ligand [7] [%]	TO-PRO-3 displacement [8]	platination of c-myc during melting temperature experiments [4]	selectivity of platination, c-myc G4 vs duplex ds26 (competition kinetics) ([4]; K+10 buffer)	incubation time to metallate a large amount of c-myc* ([4]; c-myc* 0.2 µM, K+10 buffer, 25 °C) [min]
[Cl-].[Cl][Pt+].c1ccc(-c2cc(-c3ccc(OCCN4CCCC4)cc3)nc(-c3ccccn3)n2)nc1 [Pt-cpym, Chloro-(2,4-di(pyridin-2-yl)-6-(4-(2-(pyrrolidin-1-yl)ethoxy)phenyl)pyrimidine)-platinum(II) Chloride]	< 60	2%	72	Non-defined platination products	43	33	67	weak displacement			
CN(C)CCCNCc1ccc(-c2cc(-c3ccccn3)nc(-c3ccccn3)c2)cc1.[Cl-].[Cl][Pt+] [Pt-ctpy]	> 80	< 20% and 17%	100	Non-defined platination products	82	76	88				
[Cl-].[Cl][Pt+].c1ccc(-c2cccc(-c3ccccn3)n2)nc1 [Pt-tpy]			35		14	41	21	weak displacement	clearly platinate	low binding selectivity	
Cc1ccc(-c2cc(-c3ccccn3)nc(-c3ccccn3)c2)cc1.[Cl-].[Cl][Pt+] [Pt-ttpy]	> 80	< 20%	90		66	64	80		clearly platinate	high selectivity	≤ 120
CN(C)c1ccc(/C=C/c2cc(-c3ccccn3)nc(-c3ccccn3)n2)cc1.[Cl-].[Cl][Pt+] [Pt-vpym, Chloro-(E)-4-(2-(2,6-di(pyridin-2-yl)pyrimidin-4-yl)vinyl)-N,N-dimethylaniline-platinum(II) Chloride]				Non-defined platination products				30%			
